Laboratory results taken from article PMC3581588, “Foam Cell Specific LXRα Ligand” (PLoS ONE, 2013).
Where two headings read alike, the source gives them in different places.

Assays:
[1] = target: T1, LXRα ligand binding domain (Homo sapiens, UniProt Q13133); assay: dual luciferase reporter gene assay, LXRα-LBD/GAL4-DBD in HEK-293 cells; format: cell-based
T1 construct: expressed in transfected cells; host or cells: HEK-293
T1 sequence (Q13133 164-447): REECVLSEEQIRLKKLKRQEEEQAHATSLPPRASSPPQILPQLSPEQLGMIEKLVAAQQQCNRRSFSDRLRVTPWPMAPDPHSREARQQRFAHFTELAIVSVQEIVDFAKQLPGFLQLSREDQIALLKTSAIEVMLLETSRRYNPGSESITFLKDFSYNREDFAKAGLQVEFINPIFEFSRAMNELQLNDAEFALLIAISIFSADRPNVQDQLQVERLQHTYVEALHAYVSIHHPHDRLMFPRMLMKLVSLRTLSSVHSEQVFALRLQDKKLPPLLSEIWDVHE
Procedure: (§1) The ligand binding domain (LBD) of LXRα (amino acids 164 to 447) or LXRβ (amino acids 154 to 461) was cloned into pBIND [Renilla/Amp] vector (Promega). Selection and amplification were performed in E. coli cells. Purification of the plasmids was performed with a plasmid purification kit (Qiagen). For transfection HEK-293 cells were plated in 96-well plates (TPP) at a density of 3.5×10^4 cells/well for 24 h. To investigate the ligand binding on LXRα ligand binding domain, 0.04 ng of renilla luciferase coding plasmide pGL4.75 (Promega), 0.04 ng of LXRα-LBD/GAL4-DBD plasmide and 80 ng of firefly luciferase coding plasmide pGL4.31 (Promega) were used in a total volume of 200 µL for each well. For LXRβ binding assay 40 ng of LXRβ-LBD/GAL4-DBD plasmide were applied in each transfection mix. Transfection was carried out for 4 h with Lipofectamine 2000 Transfection Reagent (Invitrogen) in Opti-MEM medium (Invitrogen). Ligand treatment was performed at different concentrations for 24 h. For lysis and detection dual-luciferase reporter gene assay system (Promega) and POLARstar Omega (BMG LABTECH) were used.

THP1-derived foam cells [2] = assay: cholesterol and triglyceride content in foam cells; format: cell-based, human; details: 10 µM, 48 h, vs. DMSO
Procedure: (§2) We used the human THP1 cell line, which is widely applied as a macrophage and foam cell model with similar properties as primary cells. […] For generating macrophages differentiation was induced by 10^−8 M Phorbol 12-myristate 13-acetate (PMA) (Sigma-Aldrich) for 48 h. Ligand treatment of macrophages was performed for further 24 h. To induce foam cell formation macrophages were treated for additional 48 h with 100 µg/mL modified human oxidized low density lipoprotein (oxLDL) obtained from Source BioScience (RP-048). Ligand treatment was performed simultaneously with foam cell formation. Cholesterol loading and treatment was controlled with Oil Red O staining (Alfa Aeser). To investigate ligand induced effects on cell proliferation of THP-1 macrophages CellTiter-Glo Luminescent Cell Viability Assay (Promega) was utilized.
(§3) THP-1 monocytes were plated out into 24-well plates (Nunc) at a density of 2×10^5 cells/well. After differentiation and treatment cells were lysed with 100 µL lysis buffer (PBS, 0.25 M NaCl, 1% Triton X-100). Total and free cholesterol were determined using the colorimetric enzymatic Amplex Red Cholesterol Assay Kit (Invitrogen). Triglycerides were quantified by Triglyceride Assay Kit (BioVision). For normalisation protein content was determined with Pierce 660 nm Protein Assay Reagent (Thermo Scientific).

[3] = target: T2, LXRβ ligand binding domain (Homo sapiens, UniProt P55055); assay: dual luciferase reporter gene assay, LXRβ-LBD/GAL4-DBD in HEK-293 cells; format: cell-based
T2 construct: expressed in transfected cells; host or cells: HEK-293
T2 sequence (P55055 154-460 limits assumed): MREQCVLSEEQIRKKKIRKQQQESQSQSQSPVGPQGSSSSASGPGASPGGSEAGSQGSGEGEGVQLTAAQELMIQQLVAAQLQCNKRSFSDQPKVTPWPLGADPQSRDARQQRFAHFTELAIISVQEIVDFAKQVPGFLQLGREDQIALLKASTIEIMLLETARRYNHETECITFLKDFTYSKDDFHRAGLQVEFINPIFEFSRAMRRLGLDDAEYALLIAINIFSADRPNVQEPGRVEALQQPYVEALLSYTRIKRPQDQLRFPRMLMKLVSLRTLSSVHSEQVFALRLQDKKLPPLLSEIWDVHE
Procedure: as §1

THP-1 macrophages [4] = assay: gene expression of LXRα target genes (qPCR) in THP-1 macrophages; format: cell-based, human; details: for expression of LXRα target genes (LXRα, SREBF1, ABCA1, APOE): 10 µM, 24 h
Procedure: as §2
(§4) Total RNA isolation and purification was performed by using the RNeasy Mini Kit (QIAGEN) and RNase-Free DNase Set (QIAGEN). cDNA was generated by reverse transcription using the High Capacity cDNA Reverse Transcription Kit (Life Technologies). Gene expression was quantified using the SYBR Green PCR Master Mix (Life Technologies) and ABI 7900HT Fast Real Time PCR System (Life Technologies). In each reaction 0.8 ng/µL cDNA and 0.2 µM primers were used. Gene expression was calculated with the ΔΔCt-method. ß-Actin was used for normalisation.

THP1-derived foam cells [5] = assay: Western blot of LXRα and APOE in foam cells; format: cell-based, human; details: Western blot densitometry
Procedure: as §2
Whole cell extracts were harvested from three biological replicates and denaturized for SDS-PAGE (NuPAGE Novex 4–12% Bis-Tris Gels). Proteins were blotted on nitrocellulose Hybond ECL membrane and incubated with strictly validated published antibodies against LXRα (Abcam, ab 41902), APOE (Abcam ab1906), and as housekeeping protein control β-Actin (Santa Cruz Biotechnology, sc-47778, C4). […] This tool measures quantitatively the optical density and provides more accurate data than simple eye-observations. […]

THP1-derived foam cells [6] = assay: gene expression of LXRα target genes (qPCR) in oxLDL-loaded foam cells; format: cell-based, human; details: 10 µM
Procedure: as §2, §4

THP-1 macrophages [7] = assay: triglyceride content in macrophages; format: cell-based, human; details: 10 µM, 48 h, vs. DMSO
Procedure: as §2, §3

[8] = +DMSO, transcriptional activation vs. T09

Efficacy ([1]; +200 nM T0901317 (additive)) | EC50 ([1]; +200 nM T0901317 (additive), read-out: EC50) | EC50 ([1]; +DMSO, LXRα reporter gene, HEK-293, 24 h, read-out: EC50) | Transcriptional activation of LXRβ [3] | SMILES | EC50 [1] | Efficacy [1, 8] | total and esterified cholesterol content (THP1-derived foam cells [2]) | triglyceride levels (THP1-derived foam cells [2]) | expression of LXRα target genes (LXRα, SREBF1, ABCA1, APOE) (THP-1 macrophages [4]) | ABCA1 expression with STX4 in the presence of T09 (THP-1 macrophages [4]; presence of 1 µM T09) | protein expression levels of LXRα target genes (LXRα, APOE) (THP1-derived foam cells [5]) | expression of LXRα target genes (LXRα, SREBF1, ABCA1, APOE) (THP1-derived foam cells [6]) | triglyceride level (THP-1 macrophages [7])
 |  |  |  | CC(C)CC[C@@H](O)[C@@H](C)[C@H]1CC[C@H]2[C@@H]3CC=C4C[C@@H](O)CC[C@]4(C)[C@H]3CC[C@]12C [22-R-Hydroxycholesterol, reference compound] | 13300 nM | 4% |  |  |  |  |  |  | 
47% | 28 nM | 35 nM | does not activate | C(=C\c1ccc(OCC2CO2)cc1)/c1ccccc1 (stereo not drawn) [STX4, 2-[[4-[(E)-styryl]phenoxy]methyl]oxirane] |  | 6% | significant reduction | not increased | not | additive effects | increased protein expression levels | potent target gene expression similar to T09 | stayed rather unchanged
 |  |  |  | O=S(=O)(c1ccccc1)N(CC(F)(F)F)c1ccc(C(O)(C(F)(F)F)C(F)(F)F)cc1 [T0901317, reference compound] |  |  | significant reduction | increased triglyceride levels | increased expression |  |  |  | stayed rather unchanged
